Like-named read-outs stand apart in the source and are kept apart here. Where a SMILES comes first, the peptide text is derived from it.
Key:
[1] = stability in mouse plasma; type: in vitro ADME; details: LC-MS/MS, representative of three experiments, read-out: % S38151 remaining
Description: (§1) First, S38151 was incubated for 16 h at 4°C and 37°C in mouse plasma or in TRIS buffer (pH 7.4). Next, plasma proteins were precipitated with two volumes of acetonitrile. After centrifugation and dilution with a water/acetonitrile mixture (50/50 v/v), the supernatant was injected onto a triple quadripole mass spectrometer (Ultima, Micromass WATERS Corporation, Milford, USA). The liquid chromatographic system consisted of an Agilent 1100 analytic pump (Agilent, Santa Clara, USA) equipped with an Alpha Mos CTC autosampler (Alpha Mos, Toulouse, France). Mass detection was performed using the m/z transition 743.5 > 163, in positive electrospray. A second stability study was performed at a lower concentration (1 μM) and for 4 h, with the following sampling times: 0, 15, 45, 90, and 240 min. At each sampling time, 50 μL of plasma were precipitated with two volumes of acetonitrile, and after centrifugation were directly injected onto the LC-MS/MS system. The same treatment was used for the buffer samples.
Figure 2 Studies regarding the stability of S38151. A solution of S38151 (40 μM) was incubated with either Tris buffer, pH 7.4 (hatched bars), or mouse plasma samples (dark bars) for 16 h at 4°C or 37°C. The samples were analyzed using liquid chromatography coupled to mass spectrometry. Experiments were repeated three times. The chart presented is representative of the experimental results. […]

[2] = test system: Wistar rats; assay: NEI-MCH-induced food intake after acute i.c.v. injection; type: in vivo, rat
Excerpt: Wistar and Zucker fa/fa rats were anesthetized with Forène (Abbott Laboratories, Queenborough, UK), and a stainless steel guide cannula (Plastic Products Co, Roanoke, Va, USA) was stereotaxically implanted into the right lateral ventricle at the following coordinates relative to the bregma: AP −0.8 mm, L = −1.2 mm, and V = −3.5 mm. After a 7-day recovery period, during which the animals were handled each day to minimize non-specific stress, they were lightly anesthetized with Forène. Human/mouse/rat MCH (1 μg in a volume of 2.5 μ L, Bachem, Voisins-le-Bretonneux, France) or an equivalent volume of artificial cerebrospinal fluid (CSF) was then injected through the intraventricular cannula. Immediately after injection, the animals quickly recovered and were returned to their home cages. Only those animals responding within 2 h with a robust increase in food intake, indicating correct cannula placement, were used in the experiments described below. Two days after MCH injection, the rats were randomly assigned to different groups and studied in one of the following protocols.
Wistar rats were habituated for at least 2 weeks before experiment to a diet of food pellets (6 mm diameter) of the following composition: 67.5% food flour, 26.5% sucrose, 5% gum tragacanth, and 1.25% magnesium stearate (A03 UAR, Orge, France). The food pellets were present in a metal food hopper attached to the inside of each cage. At 09:00 on the day of study, the animals were lightly anesthetized with Forene® (Abbott, France). Thereafter, rats were injected intra-cerebroventricular (i.c.v.) with vehicle (artificial CSF) or with S38151 [0.5, 5, 10, 20, 30, or 50 nmol/kg ([…], 14, 28, 42, or 70 μg/kg, respectively)] in a volume of 2.5 μL, 20 min prior to the injection of human/rat NEI-MCH [5 nmol/kg (18.7 μg/kg) in a volume of 2.5 μL].
Food intake was measured at different times after peptide injection. Food spillage was carefully quantified during each time period, and intake measurements were corrected for this loss. At the end of the experiments, the animals were euthanized and the positions of the cannulae were assessed by the injection of 100 μ L Evans blue dye (2 mg/mL) followed by the visual examination of brain slices. Only data obtained from animals with correctly positioned cannulae were included in the final data analysis.
Figure 3 The effect of S38151 on NEI-MCH-induced food intake in Wistar rats after acute central administration. Satiated rats were injected (i.c.v.) at the beginning of the light phase with 5 μg NEI-MCH, 5 μg NEI-MCH + differing doses of S38151 (0.5–50 nmol/kg), or an equivalent volume of artificial cereblospinal fluid vehicle (5 μL). Cumulative food intake was measured at 1, 2, 4, 6, and 24 h post-injection.

[3] = detection of compound in brain of treated animals; type: in vivo; details: brains from S38151-treated (i.p.-injected) animals, LC-MS/MS, data not shown
Description: as §1
Furthermore, we were unable to detect traces of this pseudopeptide in the brains of i.p.-injected animals. Similarly, its effect could not be correlated with aversion owing to a bad test.

With `CSCC[C@@H]1NC(=O)[C@@H](NC(=O)c2ccc(NC(=N)N)cc2)CSSC[C@@H](C(=O)N[C@@H](Cc2c[nH]c3ccccc23)C(=O)O)NC(=O)[C@@H]2CCCN2C(=O)[C@H](CCCNC(=N)N)NC(=O)[C@H](Cc2ccc(O)cc2)NC(=O)[C@H](C(C)C)NC(=O)[C@H](CCCNC(=N)N)NC(=O)[C@H](CC(C)C)NC1=O` [S38151, p-guanidinobenzoyl-(Des-Gly10)-MCH (7–17)] (HELM PEPTIDE1{[N=C(N)Nc1ccc(C(=O)[*:2])cc1].C.M.L.R.V.Y.R.P.C.W}$PEPTIDE1,PEPTIDE1,2:R3-10:R3$$$V2.0; C-terminus assumed) the remaining at 16 h, 40 μM ([1]; 4°C) was 59%, the remaining at 16 h, 40 μM ([1]; 37°C) was 1.5% and the “food intake during the entire 24-h period versus control group” value ([2]; NEI-MCH alone or any combination of NEI-MCH and S38151, i.c.v.) was “not significantly altered”. The “inhibition of NEI-MCH-induced food intake” value ([2]; S38151 50 nmol/kg i.c.v.) was “Nearly complete inhibition”, the “inhibition of the increase in food intake produced by NEI-MCH” value ([2]; S38151 0.5-50 nmol/kg i.c.v. 20 min before NEI-MCH, first and second hours) was “statistically significant dose-related inhibition” and the “amount of compound detectable in the brain” value [3] was “none was detected”.
